This passage reports AC50 and activity change, negative = inhibition results from PubChem BioAssay AID488950 (Broad Institute, 2010).

The test system of experiment [1] is C. albicans CaCi-8 + fluconazole, Alamar Blue growth, 48 h. Put plainly: growth inhibition of resistant C. albicans, dose response, CaCi-8 strain, fluconazole, dry powder, set 4 (AID 488950).
Test in experiment [2]: as above
The conditions noted are these: C. albicans CaCi-8 + fluconazole, Alamar Blue growth, 48 h; at 26 µM (top of the series). Background: Alamar Blue is a resazurin reagent that responds to reducing activity.

Molecules are shown by their SMILES. Values joined by “and” are separate entries in the source; they are usually repeats but may differ in a detail not shown here. Equal entries are not always repeated. Results filed as inconclusive are left out. Active and inactive are the calls of the source.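 The calls were made as follows: active = fitted half-maximal dose for growth inhibition no higher than ten times the top tested dose; inconclusive = flat curve with 30 to 70% inhibition, or poor fit; inactive = the rest.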

One may read the AC50 as the concentration giving half of the maximal activity seen. Take `O=C(c1ccc(Cl)cc1)N1CCN(c2ccnc3cc(Cl)ccc23)CC1`: the half-maximal activity concentration (AC50) in experiment [1] was 0.179 µM and 0.6 µM.

For the compound `O=C(c1ccc(Cl)cc1)N1CCN(c2ccccn2)CC1`, the concentration at half-maximal activity (AC50) in experiment [1] was 9.14 µM and 13.8 µM and 19.9 µM. With `O=C(c1ccc(Cl)cc1)N1CCNCC1`, the activity change, negative = inhibition in experiment [2] was 4.63% (inactive). As for `COc1cccnc1N1CCN(C(=O)c2ccc(Cl)cc2)CC1`, in experiment [2], the activity change, negative = inhibition is -25% (inactive).

As for `O=C(c1ccc(Cl)cc1)N1CCN(c2cc(C(F)(F)F)nc3ccccc23)CC1`, the activity change, negative = inhibition in experiment [2] was -54.5% (inactive). Turning to `COc1cccc2c(N3CCN(C(=O)c4ccc(Cl)cc4)CC3)cc(C)nc12`, the activity change, negative = inhibition in experiment [2] was -22.9% (inactive). Still for that read-out and setting: the same measure for `CC(C)C(=O)N1CCN(c2ccnc3cc(Cl)ccc23)CC1`: -25.6% (inactive); for `Clc1ccc2c(N3CCNCC3)ccnc2c1`: 7.46% (inactive); for `O=S(=O)(c1ccc(Cl)cc1)N1CCN(c2ccnc3cc(Cl)ccc23)CC1`: -2.18% (inactive). In the case of `O=C(c1ccc(Cl)cc1)N1CCN(c2ccncc2)CC1`, in experiment [2], the activity change, negative = inhibition was -2.65% (inactive). `Cc1cc(N2CCN(C(=O)c3ccc(Cl)cc3)CC2)c2ccccc2n1`: the activity change, negative = inhibition in experiment [2] is 6.54% (inactive).
